From PMC7956476, “Quinoline Functionalized Schiff Base Silver (I) Complexes: Interactions with Biomolecules and In Vitro Cytotoxicity, Antioxidant and Antimicrobial Activities” (Molecules, 2021)

Tests used:
[1] = tested on: Escherichia coli ATCC 25922; assay: Minimum inhibitory concentration (MIC), spotting on Müeller–Hinton agar; format: cell-based; conditions: Gram − Ve, E. coli, 37 °C, 18 h
Method: (§1) Sterilized Nutrient agar medium was first prepared by dissolving 38 g of Müeller–Hinton agar (MHA) (Biolab, Midrand, Africa) in distilled water (1 L). […] The cooled Agar medium was poured in Petri dishes while ensuring a uniform 4 mm depth of the medium and cooling further to ambient temperature.
(§2) These bacteria were inoculated in a sterilized Nutrient Broth (NB) (Biolab, Midrand, Africa) through streak plate technique and incubated at 37 °C for 18 h. The nutrient broth was sterilized by dissolving 1.3 g in distilled water (100 mL). Ca. 10 mL of the nutrient broth was transferred into a cotton wool-plugged test tubes and wrapped with an aluminium foil. […] Following this was the isolation of a single colony of the bacteria and inoculated into a 10 mL sterile NB which was then incubated in a shaking incubator at 37 °C for 18 h. Each of the bacteria strain concentrations was adjusted with sterile distilled water to get a final concentration of 1.5 × 10^8 cfu/mL, i.e., 0.5 Mc Farland’s Standard using a densitometer (Mc Farland Latvia). The bacteria were lawn inoculated on the set MHA Petri dishes using a sterile cotton swab. Screening of L1–L5 and Q1–Q15 for antibacterial activity was first carried out by spotting 5 µL of their solution (prepared from the dissolution of 1000 µg of the L1–L5 and Q1–Q15 in 1 mL dimethyl sulfoxide (DMSO)) on an MHA petri dish and incubated at 37 °C for 18 h. The antibacterial activity was determined by looking out for a clear zone at the spotting point.

[2] = tested on: Staphylococcus aureus ATCC 25923; assay: as above; format: cell-based; conditions: Gram + Ve, S. aureus, 37 °C, 18 h
Method: as §1, §2

[3] = Ferric reducing antioxidant power (FRAP) assay; format: biochemical; conditions: done in triplicate
Text: Antioxidants are important in protecting the human body against damage by reactive oxygen species (ROS). Accumulation of ROS in the cells may lead to damage of the DNA, RNA, and proteins which subsequently leads to several physiological disorders such as cardiovascular disease, diabetes, rheumatism, atherosclerosis, cancer, aging and cell death. […] The free radical scavenging ability of all ligands and complexes in this study were investigated using ferric reducing antioxidant power (FRAP). In antioxidant studies, FRAP assay is often preferred because it is simple, fast, economical, and direct in antioxidant measurement. FRAP assay is based on the electron-donating ability of an antioxidant compound. This involves the reduction of a colorless Fe^3+ tripyridyltriazine complex (Fe^3+ (TPTZ)) to an intense blue-colored Fe^2+ tripyridyltriazine complex (Fe^2+ (TPTZ)) by the electron-donating antioxidants at low pH [69]. The reducing power is to determine the reductive ability of the test compounds.
Antioxidant activity studies of L1–L5 and Q1–Q15 were done using ferric reducing antioxidant power (FRAP) assay. The ferric reducing antioxidant power assay is often used to evaluate the ability of an antioxidant to donate an electron. […] The resulting mixture was incubated at 50 °C for 20 min, and 2.5 mL of 10% trichloroacetic acid was added to acidify the mixture. After that, 1 mL of the acidified mixture was added to 1 mL of distilled water and 0.5 mL of 0.1% FeCl3. The absorbance of the resulting solution was then measured at 700 nm. The antioxidant power of the compounds was expressed as a percentage of ferric reducing antioxidant power Ascorbic acid equivalent, as shown in Equation (4). (4) % FRAP =Absorbance of Absorbance of Sample/Absorbance of Ascorbic Acid ×100

calf thymus DNA (CT-DNA) = assay: CT-DNA electronic absorption titration (Wolfe–Shimer); format: binding; conditions: for CT-DNA-Cmp. Kb (M^−1) × 10^5: intrinsic binding constant, absorption titration, PBS pH 7.2
Method: The interaction of the L1–L5 and complexes Q1–Q15 with calf thymus-DNA was carried out in a Phosphate buffer saline solution pH 7.2 stored at 4 °C. The DNA stock solution was prepared by dissolving CT-DNA sodium salt in Phosphate buffer saline solution with continuous stirring overnight. It was filtered and stored at 4 °C and used within four days. […] A fixed amount of the L1–L5 and complexes Q1–Q15 (50 µM) were prepared by dissolving an appropriate amount in DMSO. […] Therefore, in all the experimental of the interaction of L1–L5 and complexes Q1–Q15 with biomolecules, the final concentration of DMSO in the incubation mixture was ~2% (v/v).
The binding modes of L1–L5 and complexes Q1–Q15 to CT-DNA were characterized through electronic absorption titration by varying concentrations of CT-DNA (0–30 µM) in phosphate buffer saline solution against fixed concentrations (20 µM) of L1–L5 and complexes Q1–Q15. […] The absorbance of CT-DNA is cancelled by adding equivalent amounts of CT-DNA to both the tested compounds and the reference solutions.

[4] = tested on: Pseudomonas aeruginosa ATCC 27853; assay: Minimum inhibitory concentration (MIC), spotting on Müeller–Hinton agar; format: cell-based; conditions: Gram − Ve; P. aeruginosa; 37 °C, 18 h
Method: as §1, §2

[5] = tested on: Salmonella typhimurium ATCC 14026; assay: as above; format: cell-based; conditions: Gram − Ve; S. typhi; 37 °C, 18 h
Method: as §1, §2

[6] = tested on: Staphylococcus aureus ATCC 700699 (methicillin-resistant); assay: as above; format: cell-based; conditions: Gram + Ve; methicillin-resistant S. aureus; 37 °C, 18 h
Method: as §1, §2

CT-DNA-EB adduct = assay: Fluorescence competitive displacement of ethidium bromide from CT-DNA; format: binding, calf; conditions: for CT-DNA-EB-Complex Ksv (M^−1) × 10^4: Stern–Volmer quenching constant, EB displacement, 25 °C; for CT-DNA-EB-Complex Kq (M^−1S^−1) × 10^12: bimolecular quenching constant, Ksv = Kqτo, τo 10^−8 s; for CT-DNA-EB-Complex Kbin (M^−1) × 10^5: binding constant from double-logarithmic plot
Text: The Stern–Volmer plot approach was used based on the fact that the Stern–Volmer plots for Q1–Q15 (Figure 5c), were linear an indication of only one mechanism for the quenching fluorescence, i.e., either dynamic or static. […] (1) Ksv=Kqτo where Ksv, Kq, and τo represent Stern–Volmer quenching constant, bimolecular quenching constant, and an average lifetime of the fluorophore in the absence of the quencher, respectively. τₒ normally takes about 10^−8 s in biomacromolecules.
The double-logarithmic Equation (2) was used in determining the binding constant of complexes Q1–Q15 and CT-DNA. (2) logFo−F/F=logKb+n logQ
A competitive displacement study was carried out using fluorescence spectroscopy between CT-DNA pre-treated with ethidium bromide (EB) and complexes Q1–Q15 to establish the complexes′ actual mode of binding to CT-DNA. […] The competitive luminescence displacement assay was done using a modified method. Pre-treated 15 µM solution of EB with 15 µM of CT-DNA was prepared in a phosphate buffer of pH 7.2 and left to equilibrate for 30 min. Keeping CT-DNA-EB concentrations constant, different concentrations (0–20 µM) of the complexes were added at 8 min incubation interval at room temperature. The fluorescence quenching ability of CT-DNA bound EB by the complexes were recorded in the wavelength range of 530–700 nm with an excitation wavelength at 525 nm at 25 °C. (6) Fo/F=1+KSVQ=1+KqτoQ
A Stern–Volmer (Equation (6)) was used to evaluate the CT-DNA-EB fluorescence quenching of the complexes. Where Fo and F denote the relative fluorescence intensities of CT-DNA in the absence and presence of the quencher, Ksv, Stern–Volmer quenching constant, [Q], quencher concentration, Kq, bimolecular quenching constant and τo, average lifetime of the fluorophore in the absence of the quencher which is typically equal to 10^−8 s in biomacromolecules.

[7] = biological target: bovine serum albumin (BSA) (Bos taurus, UniProt P02769); assay: Albumin binding by absorption spectroscopy titration
Chain of bovine serum albumin (BSA) (P02769 25-607): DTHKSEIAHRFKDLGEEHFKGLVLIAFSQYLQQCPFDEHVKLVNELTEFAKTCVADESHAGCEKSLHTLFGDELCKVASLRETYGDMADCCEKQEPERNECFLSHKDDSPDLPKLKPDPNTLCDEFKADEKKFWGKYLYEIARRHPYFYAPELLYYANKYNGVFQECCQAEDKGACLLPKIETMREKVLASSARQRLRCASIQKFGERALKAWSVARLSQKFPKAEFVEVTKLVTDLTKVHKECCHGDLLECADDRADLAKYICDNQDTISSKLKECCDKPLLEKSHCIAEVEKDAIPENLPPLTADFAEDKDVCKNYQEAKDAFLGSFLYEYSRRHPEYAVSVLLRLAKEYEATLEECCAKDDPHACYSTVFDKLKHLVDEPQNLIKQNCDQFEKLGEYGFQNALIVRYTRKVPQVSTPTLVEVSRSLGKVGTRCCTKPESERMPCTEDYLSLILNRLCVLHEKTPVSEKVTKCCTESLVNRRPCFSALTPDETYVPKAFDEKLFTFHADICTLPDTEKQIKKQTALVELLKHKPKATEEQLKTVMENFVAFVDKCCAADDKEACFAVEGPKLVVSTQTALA
Text: Bovine serum albumin (BSA) was used as the protein standard in this study because of its close resemblance to human serum albumin (HSA), its stability, high solubility, neutrality in many biochemical reactions and low cost. In protein binding study, absorption spectroscopy titration is a known method used in studying the conformational changes in proteins, and this protein is characterized by an intense absorbance peak at 280 nm depicting the microenvironment around tyrosine and tryptophan residue polarity.
The absorbance assay of albumin binding is a very simple method used in identifying the conformational changes in protein. […] A stock solution of bovine serum albumin (BSA) was prepared by dissolving an appropriate amount of BSA in phosphate buffer saline solution (pH 7.2) under constant stirring for 1 h at 25 °C. It was kept at 4 °C and used within four days. […] The stock solution of the complex was prepared by dissolving 1 mmol of the complexes in DMSO. The absorption titration assay was done by adding different concentrations (0–10 µM) of the complexes to a constant BSA concentration (6 µM). The sample solution was incubated after each addition of the concentrations for 10 min at 25 °C before recording the absorbance at λmax 280 nm.

Structure (SMILES) | MIC ([1]; Escherichia coli, ATCC25922, read-out: Minimum inhibitory concentration, EC) | MIC ([2]; Staphylococcus aureus, ATCC25923, read-out: Minimum inhibitory concentration, SA) | Antioxidant (IC50 mg/mL) FRAP [3] | CT-DNA-Cmp. Kb (M^−1) × 10^5 (calf thymus DNA (CT-DNA)) | Minimum inhibitory concentration, EC [1] | Minimum inhibitory concentration, PA [4] | Minimum inhibitory concentration, ST [5] | Minimum inhibitory concentration, SA [2] | Minimum inhibitory concentration, MRSA [6] | CT-DNA-EB-Complex Ksv (M^−1) × 10^4 (CT-DNA-EB adduct) | CT-DNA-EB-Complex Kq (M^−1S^−1) × 10^12 (CT-DNA-EB adduct) | CT-DNA-EB-Complex Kbin (M^−1) × 10^5 (CT-DNA-EB adduct) | Protein-Complex Kb (M^−1) × 10^4 [7] | hypochromic shift in the absorption bands on addition of CT-DNA (calf thymus DNA (CT-DNA); absorption titration with CT-DNA)
Fc1ccccc1/N=C/c1ccc2ccccc2n1 [Complex L1, (E)-N-(2-fluorophenyl)-1-(quinolin-2-yl)methanimine] | 1000 µg/mL | 100 µg/mL | 22.42 ± 0.0048 mg/mL | 1.38 (M^−1) × 10^5 | – | – | – | – | – | – | – | – | – | –
Clc1ccc(N=Cc2ccc3ccccc3n2)cc1.Clc1ccc(N=Cc2ccc3ccccc3n2)cc1.O=[N+]([O-])[O-].[Ag+] [Complex Q3, [Ag(L3)2]NO3] | – | – | 4.75 ± 0.0042 mg/mL | 15.7 (M^−1) × 10^5 | 25 µg/mL | 12.5 µg/mL | 50 µg/mL | 50 µg/mL | 50 µg/mL | 3.93 (M^−1) × 10^4 | 3.93 (M^−1S^−1) × 10^12 | 9.17 (M^−1) × 10^5 | 5.11 (M^−1) × 10^4 | –
O=S(=O)([O-])C(F)(F)F.[Ag+] [AgCF3SO3, silver trifluoromethanesulfonate, reference compound] | – | – | 0.88 ± 0.054 mg/mL | 2.00 (M^−1) × 10^5 | 50 µg/mL | 1000 µg/mL | 12.5 µg/mL | – | 1000 µg/mL | 3.01 (M^−1) × 10^4 | 3.01 (M^−1S^−1) × 10^12 | 1.60 (M^−1) × 10^5 | 4.46 (M^−1) × 10^4 | 23.64–50.86%
Cc1ccc(N=Cc2ccc3ccccc3n2)cc1.Cc1ccc(N=Cc2ccc3ccccc3n2)cc1.O=[N+]([O-])[O-].[Ag+] [Complex Q4, [Ag(L4)2]NO3] | – | – | 2.14 ± 0.0035 mg/mL | 4.00 (M^−1) × 10^5 | 12.5 µg/mL | 12.5 µg/mL | 50 µg/mL | – | 50 µg/mL | 3.50 (M^−1) × 10^4 | 3.50 (M^−1S^−1) × 10^12 | 2.11 (M^−1) × 10^5 | 10.3 (M^−1) × 10^4 | –
O=S(=O)([O-])C(F)(F)F.[Ag+].c1ccc2nc(-c3nc4ccccc4s3)ccc2c1.c1ccc2nc(-c3nc4ccccc4s3)ccc2c1 [Complex Q12, [Ag(L2)2]CF3SO3] | – | – | 1.86 ± 0.024 mg/mL | 4.50 (M^−1) × 10^5 | 25 µg/mL | 12.5 µg/mL | 50 µg/mL | – | 50 µg/mL | 3.14 (M^−1) × 10^4 | 3.14 (M^−1S^−1) × 10^12 | 2.12 (M^−1) × 10^5 | 20.7 (M^−1) × 10^4 | –
C(=NCc1cccs1)c1ccc2ccccc2n1.C(=NCc1cccs1)c1ccc2ccccc2n1.O=S(=O)([O-])C(F)(F)F.[Ag+] [Complex Q15, [Ag(L5)2]CF3SO3] | – | – | 3.35 ± 0.012 mg/mL | 4.00 (M^−1) × 10^5 | 25 µg/mL | ~0.8 µg/mL | 1000 µg/mL | – | 100 µg/mL | 2.48 (M^−1) × 10^4 | 2.48 (M^−1S^−1) × 10^12 | 5.29 (M^−1) × 10^5 | 13.1 (M^−1) × 10^4 | –
